Several values for one entry are separate records, joined by “and”; a condition that tells them apart may be missing. Identical values can stand only once. Like-named read-outs stand apart in the source and are kept apart here.
Experiments:
[1] = target: OAT10 (Homo sapiens, UniProt Q9Y226); experiment: [14C]-nicotinate uptake by OAT10-expressing Xenopus oocytes; type: cell-based; conditions: for Inhibition of OAT10 [14C]-nicotinate uptake: drug 100 μmol/L
Method: (§1) For uptake experiments, oocytes were washed four times with ND96 medium (pH 7.4) without pyruvate and gentamycin.
(§2) Chloride ion‐dependence was also assessed; in 0 Cl^− bath, NaCl was replaced by Na‐gluconate (Na‐Gluc), KCl by K‐gluconate (K‐Gluc), MgCl2 by Mg‐gluconate, and CaCl2 by Ca‐gluconate. […] Data are mean ± S.E. with n = 12–15.

[2] = target: T1, OAT1 (Homo sapiens, UniProt Q4U2R8); experiment: [14C]-urate uptake by OAT1-expressing Xenopus oocytes; type: cell-based; conditions: drug 100 μmol/L
T1 sequence (Q4U2R8 1-563): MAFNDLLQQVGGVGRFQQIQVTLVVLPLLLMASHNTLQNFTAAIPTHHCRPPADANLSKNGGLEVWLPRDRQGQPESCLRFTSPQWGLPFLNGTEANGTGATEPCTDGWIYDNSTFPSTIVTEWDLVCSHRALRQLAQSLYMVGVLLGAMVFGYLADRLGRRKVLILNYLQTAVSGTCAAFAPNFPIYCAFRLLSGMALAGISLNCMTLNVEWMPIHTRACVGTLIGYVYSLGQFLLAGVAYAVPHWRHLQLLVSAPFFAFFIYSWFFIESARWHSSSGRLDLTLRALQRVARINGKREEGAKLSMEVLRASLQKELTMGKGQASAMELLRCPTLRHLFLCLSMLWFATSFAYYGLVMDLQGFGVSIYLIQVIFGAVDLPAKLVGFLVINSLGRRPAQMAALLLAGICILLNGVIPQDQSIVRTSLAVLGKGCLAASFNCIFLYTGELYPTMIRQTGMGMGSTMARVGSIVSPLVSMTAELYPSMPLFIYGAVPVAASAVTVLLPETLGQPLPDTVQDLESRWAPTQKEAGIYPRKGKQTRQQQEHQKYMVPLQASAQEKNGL
Description: as §1

[3] = target: T2, SMCT1 (Homo sapiens, UniProt Q8N695); experiment: [14C]-nicotinate uptake by SMCT1-expressing Xenopus oocytes; type: cell-based; conditions: for IC50: data not shown, read-out: IC50, SMCT1-mediated [14C]-nicotinate uptake
T2 sequence (Q8N695 1-610): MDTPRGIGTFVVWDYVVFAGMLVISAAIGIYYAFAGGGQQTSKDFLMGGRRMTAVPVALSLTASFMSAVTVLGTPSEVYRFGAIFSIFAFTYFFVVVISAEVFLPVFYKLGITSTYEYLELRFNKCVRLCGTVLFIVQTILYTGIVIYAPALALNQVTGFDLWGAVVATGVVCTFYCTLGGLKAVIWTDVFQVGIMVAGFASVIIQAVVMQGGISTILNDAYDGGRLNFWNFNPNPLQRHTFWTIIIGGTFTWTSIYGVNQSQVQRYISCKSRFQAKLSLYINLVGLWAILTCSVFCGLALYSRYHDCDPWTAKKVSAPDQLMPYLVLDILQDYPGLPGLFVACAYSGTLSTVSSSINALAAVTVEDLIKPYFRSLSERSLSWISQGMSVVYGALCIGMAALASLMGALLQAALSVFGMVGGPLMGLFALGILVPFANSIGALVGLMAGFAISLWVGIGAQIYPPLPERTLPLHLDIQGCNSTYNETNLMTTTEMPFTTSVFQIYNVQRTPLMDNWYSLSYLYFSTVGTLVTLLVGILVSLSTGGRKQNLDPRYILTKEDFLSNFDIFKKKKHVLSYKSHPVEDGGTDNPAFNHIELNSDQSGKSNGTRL
Method: as §1, §2

[4] = target: T3, URAT1 (Homo sapiens, UniProt Q96S37); experiment: [14C]-nicotinate uptake by URAT1-expressing Xenopus oocytes; type: cell-based
T3 sequence (Q96S37 1-553): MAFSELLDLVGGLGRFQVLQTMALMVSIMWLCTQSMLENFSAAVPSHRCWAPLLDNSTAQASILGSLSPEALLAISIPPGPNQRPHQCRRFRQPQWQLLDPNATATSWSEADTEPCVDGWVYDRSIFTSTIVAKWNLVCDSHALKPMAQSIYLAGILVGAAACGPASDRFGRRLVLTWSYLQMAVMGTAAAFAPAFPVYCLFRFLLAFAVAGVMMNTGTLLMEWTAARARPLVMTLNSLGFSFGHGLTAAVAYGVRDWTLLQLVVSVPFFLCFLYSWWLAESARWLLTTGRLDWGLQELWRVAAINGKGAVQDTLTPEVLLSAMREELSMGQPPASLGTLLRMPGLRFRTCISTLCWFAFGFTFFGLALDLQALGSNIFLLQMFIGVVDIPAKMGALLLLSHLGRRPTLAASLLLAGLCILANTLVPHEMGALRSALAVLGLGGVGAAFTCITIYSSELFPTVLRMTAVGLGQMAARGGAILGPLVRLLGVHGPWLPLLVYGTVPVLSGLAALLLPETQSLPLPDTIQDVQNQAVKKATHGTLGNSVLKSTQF
Description: as §1
Data are mean ± S.E. with n = 12–15.

[5] = tested on: inflammation induced by monosodium urate (MSU) crystals; design: method as in Serafini and Emerling 2010; conditions: ref Serafini and Emerling 2010; cited from earlier work
[6] = design: method as in Sundy and Kitt 2010; conditions: at least partially due to uricosuric effects; ref Sundy and Kitt 2010; cited from earlier work
[7] = PZA-preloaded oocytes, read-out: IC50, OAT10-mediated [14C]-nicotinate/PZA exchange

Sequence of OAT10 (Q9Y226 whole entry): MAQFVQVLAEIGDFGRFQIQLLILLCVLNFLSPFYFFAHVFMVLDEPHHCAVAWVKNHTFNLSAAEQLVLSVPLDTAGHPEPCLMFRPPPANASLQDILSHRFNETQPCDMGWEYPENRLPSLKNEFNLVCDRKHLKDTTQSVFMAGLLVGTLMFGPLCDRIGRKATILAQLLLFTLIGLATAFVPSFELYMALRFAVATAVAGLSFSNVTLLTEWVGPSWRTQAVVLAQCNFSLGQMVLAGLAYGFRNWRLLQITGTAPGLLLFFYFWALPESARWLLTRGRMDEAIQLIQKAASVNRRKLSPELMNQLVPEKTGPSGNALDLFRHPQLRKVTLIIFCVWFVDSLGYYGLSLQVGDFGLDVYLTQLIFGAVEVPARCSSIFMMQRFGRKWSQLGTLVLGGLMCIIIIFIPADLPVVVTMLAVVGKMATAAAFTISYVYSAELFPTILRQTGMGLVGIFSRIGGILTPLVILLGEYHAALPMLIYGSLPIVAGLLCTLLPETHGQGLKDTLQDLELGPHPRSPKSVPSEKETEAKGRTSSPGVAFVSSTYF

| Compound | IC50 [1, 7] [µM] | Inhibition of OAT10 [14C]-nicotinate uptake [1] | IC50 ([1]; without preloading, data not shown, read-out: IC50, OAT10-mediated [14C]-nicotinate uptake) [µM] | Inhibition of OAT1-mediated urate uptake [2] | IC50 [3] | IC50 ([4]; PZA-preloaded oocytes, 40 μmol/L nicotinate, read-out: IC50, URAT1-mediated [14C]-nicotinate uptake ([14C]-nicotinate/PZA exchange)) | Effect on inflammation induced by MSU crystals in vivo [5] | Effect on SUA in healthy human subjects [6] | Inhibition of SMCT1 nicotinate uptake ([3]; drug 1.0 mmol/L) | Sensitivity of URAT1-mediated [14C]-nicotinate uptake to drug ([4]; data not shown) |
| --- | --- | --- | --- | --- | --- | --- | --- | --- | --- | --- |
| COc1ccc(C=CC(=O)Nc2ccccc2C(=O)O)cc1OC [tranilast, N‐(3,4‐dimethoxycinnamoyl) anthranilic acid] | ~43.1 | inhibited | ~42 | effectively inhibited | ~1100 µM and > 185 µM | ~190 µM and 190 µM and > 185 µM | suppresses inflammation | potent reduction in SUA | – | – |
| CCCN(CCC)S(=O)(=O)c1ccc(C(=O)O)cc1 [probenecid] | – | – | – | – | – | – | – | – | significantly inhibited | very sensitive |
| CCc1oc2ccccc2c1C(=O)c1cc(Br)c(O)c(Br)c1 [benzbromarone] | ~22.8 | inhibited | – | effectively inhibited | ~49.6 µM | – | – | – | – | – |
